ChEMBL document CHEMBL3396993, “Inhibition of monoamine oxidase by indole-5,6-dicarbonitrile derivatives” (Bioorg Med Chem Lett, 2015)
pIC50, pKi: −log10 of the molar value.

Columns and labels:
[1] = molecular target: T1, Amine oxidase [flavin-containing] A (Homo sapiens, UniProt P21397);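 note: recombinant human enzyme, activity followed as kynuramine conversion to 4-hydroxyquinoline, detected by spectrofluorometry, inhibition measured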
T1 sequence (P21397 whole entry): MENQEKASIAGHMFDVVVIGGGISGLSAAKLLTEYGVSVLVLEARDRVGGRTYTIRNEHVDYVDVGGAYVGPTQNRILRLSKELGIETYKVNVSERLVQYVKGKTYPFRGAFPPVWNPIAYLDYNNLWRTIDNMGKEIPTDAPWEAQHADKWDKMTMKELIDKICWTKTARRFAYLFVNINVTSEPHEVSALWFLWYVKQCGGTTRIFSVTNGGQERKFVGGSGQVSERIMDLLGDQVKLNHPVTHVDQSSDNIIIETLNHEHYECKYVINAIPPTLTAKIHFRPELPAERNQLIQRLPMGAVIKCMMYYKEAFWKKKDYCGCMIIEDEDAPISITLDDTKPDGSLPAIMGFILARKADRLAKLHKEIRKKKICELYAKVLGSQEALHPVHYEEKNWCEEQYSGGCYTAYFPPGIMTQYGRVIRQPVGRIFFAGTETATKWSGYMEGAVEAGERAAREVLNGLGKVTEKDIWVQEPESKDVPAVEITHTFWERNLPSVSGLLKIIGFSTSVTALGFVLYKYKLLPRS

[2] = molecular target: T2, Amine oxidase [flavin-containing] B (Homo sapiens, UniProt P27338);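 note: recombinant enzyme, kynuramine substrate converted to 4-hydroxyquinoline, product quantified by spectrofluorometry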
T2 sequence (P27338 whole entry): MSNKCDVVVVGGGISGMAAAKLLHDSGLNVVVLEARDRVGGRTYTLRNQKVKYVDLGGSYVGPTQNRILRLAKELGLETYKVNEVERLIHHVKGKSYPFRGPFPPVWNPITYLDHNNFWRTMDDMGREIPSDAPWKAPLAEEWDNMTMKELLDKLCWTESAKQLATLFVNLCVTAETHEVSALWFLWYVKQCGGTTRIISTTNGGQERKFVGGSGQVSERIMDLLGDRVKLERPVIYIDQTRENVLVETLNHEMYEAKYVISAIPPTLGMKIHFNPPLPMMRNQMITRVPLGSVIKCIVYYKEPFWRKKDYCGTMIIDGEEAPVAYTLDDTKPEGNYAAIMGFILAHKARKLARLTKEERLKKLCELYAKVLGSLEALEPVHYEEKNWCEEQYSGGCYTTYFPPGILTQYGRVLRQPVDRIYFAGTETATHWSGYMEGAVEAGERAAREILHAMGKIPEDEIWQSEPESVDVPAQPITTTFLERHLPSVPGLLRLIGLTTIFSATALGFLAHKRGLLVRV

[3] = molecular target: T1, Amine oxidase [flavin-containing] A; assay: Reversible inhibition of human recombinant MAO-A using kynuramine substrate assessed as enzyme activity recovered at 4 times of IC50 concentration incubated for 15 mins relative to control; parameters: scale not given: the % may be the effect or the level left; conditions: 0.25 h
[4] = molecular target: T2, Amine oxidase [flavin-containing] B; assay: Reversible inhibition of human recombinant MAO-B using kynuramine substrate assessed as enzyme activity recovered at 4 times of IC50 concentration incubated for 15 mins and subsequently dialyzed for 24 hrs relative to control in presence of (R)-deprenyl; parameters: scale not given: the % may be the effect or the level left; conditions: 0.25 h
[5] = molecular target: T1, Amine oxidase [flavin-containing] A; assay: Reversible inhibition of human recombinant MAO-A using kynuramine substrate assessed as enzyme activity recovered at 4 times of IC50 concentration incubated for 15 mins and subsequently dialyzed for 24 hrs relative to control; parameters: scale not given: the % may be the effect or the level left; conditions: 0.25 h
[6] = molecular target: T2, Amine oxidase [flavin-containing] B; assay: Reversible inhibition of human recombinant MAO-B using kynuramine substrate assessed as enzyme activity recovered at 4 times of IC50 concentration incubated for 15 mins and subsequently dialyzed for 24 hrs relative to control; parameters: scale not given: the % may be the effect or the level left; conditions: 0.25 h
[7] = molecular target: T1, Amine oxidase [flavin-containing] A; assay: Reversible inhibition of human recombinant MAO-A using kynuramine substrate assessed as enzyme activity recovered at 4 times of IC50 concentration incubated for 15 mins and subsequently dialyzed for 24 hrs relative to control in presence of pargyline; parameters: scale not given: the % may be the effect or the level left; conditions: 0.25 h
[8] = molecular target: T1, Amine oxidase [flavin-containing] A; assay: Inhibition of human recombinant MAO-A assessed as kynuramine substrate by Lineweaver-Burk plot analysis
[9] = molecular target: T2, Amine oxidase [flavin-containing] B; assay: Inhibition of human recombinant MAO-B assessed as kynuramine substrate by Lineweaver-Burk plot analysis
[10] = molecular target: T2, Amine oxidase [flavin-containing] B; assay: Reversible inhibition of human recombinant MAO-B using kynuramine substrate assessed as enzyme activity recovered at 4 times of IC50 concentration incubated for 15 mins relative to control; parameters: scale not given: the % may be the effect or the level left; conditions: 0.25 h

Compound	pIC50 [1]	pIC50 [2]	further results
N#Cc1ccc(OCc2ccc(Br)cc2)cc1C#N	8.18		
COc1ccc(-c2c(Cl)c3cc(C#N)c(C#N)cc3n2C)cc1	6.89	< 4.00	
Cn1c(-c2cccs2)c(Cl)c2cc(C#N)c(C#N)cc21	7.46	< 4.00	
N#Cc1cc2[nH]c(-c3ccccc3)c(Cl)c2cc1C#N	6.92	6.84	
COc1ccc(-c2[nH]c3cc(C#N)c(C#N)cc3c2Cl)cc1	8.40	7.70	
N#Cc1cc2[nH]c(-c3cccs3)c(Cl)c2cc1C#N	6.93	5.90	
Cn1c(-c2ccccc2)c(Cl)c2cc(C#N)c(C#N)cc21	6.85	< 4.00	
N#Cc1ccc(OC/C=C/c2ccccc2)cc1C#N		6.19	

The next lines start with results.

pIC50 [1]	pIC50 [2]	Compound	further results
4.71	< 4.00	Cc1ccc(-c2c(Cl)c3cc(C#N)c(C#N)cc3n2C)cc1	
5.46	4.92	N#Cc1cc2c(Br)c(-c3ccccc3)n(O)c2cc1C#N	
6.14	5.82	COc1ccc(-c2c(Br)c3cc(C#N)c(C#N)cc3n2O)cc1	
5.66	5.54	Cc1ccc(-c2c(Br)c3cc(C#N)c(C#N)cc3n2O)cc1	
< 4.00	< 4.00	COc1ccc(-c2c(Br)c3cc(C#N)c(C#N)cc3n2OC)cc1	
7.85	7.77	Cc1ccc(-c2[nH]c3cc(C#N)c(C#N)cc3c2Cl)cc1	Activity [3]: 43%; Activity [4]: 3.1%; Activity [5]: 77%; Activity [6]: 78%; Activity [7]: 1.6%; pKi [8]: 7.74; pKi [9]: 7.80; Activity [10]: 37%
